Values of other authors as cited in patent publication US20100121052A1, “Novel compounds for treating proliferative diseases” (priority 2008, published 2010).

System: prostate cancer cell lines
Settings: background statement

## CC(=O)O[C@@H]1[C@@H](OC(C)=O)[C@@H](O)[C@H](Oc2c(-c3ccc(O)cc3)oc3cc(O)cc(O)c3c2=O)O[C@H]1C [SL0101]
  inhibition of proliferation of multiple prostate cancer cell lines: inhibit the proliferation
